Measurements as given in patent US8017727B2, “Conjugates of membrane translocating agents and pharmaceutically active agents” (Merrion Research III Limited, priority 1999, dated 2011).
Where two headings read alike, the source gives them in different places.

What was measured:
[1] = 3H tissue distribution of kappa peptide conjugates, conscious rat model; assay type: in vivo, Wistar rats; conditions: potency corrected; for Kidney, % of administered dose / Plasma, % of administered dose / Total Recovery, % of administered dose: t=6 h
Protocol: The tissue was weighed and a representative sample, (ca 0.1 g), was removed to a scintillation vial. The tissue was solubilzed with 1 ml of BTS-450 (an organic tissue solubliser). Ten ml of scintillation fluid was added and the radioactivity was measured. The radioactivity was expressed as dpm/initial weight of tissue.

[2] = Systemic 3H bioavailability of kappa peptide conjugates, conscious rat model (plasma); assay type: in vivo, Wistar rats
Protocol: The possible enhancing effects of ELAN094 and ELAN207 MTLPs (SEQ ID NOs 2 and 60) on intestinal absorption of the kappa peptide were examined in a conscious rat model.
The study was non-randomised, parallel group design. Wistar rats within the 250-350 g weight range were used. All animals were fasted for a period of 16 h prior to study initiation. Water was available at all times.
Intravenous injection of 10 μCi of ^3H-kappa peptide-Kaffiralin-1 (plain kappa peptide) (tail vein injection).
Intraduodenal instillation of 100 μCi of ^3H-kappa peptide-Elan094 (Analysed). The Elan094 ligand contains a membrane translocating sequence.
Intraduodenal instillation of 100 μCi of ^3H-kappa peptide-Elan207 (Analysed). The Elan207 ligand contains a membrane translocating sequence.
Intraduodenal instillation of 100 μCi of ^3H-kappa peptide-Kaffiralin-1.
The plasma (100-250 μl) was made up to 1 ml with BTS-450 (an organic tissue solubiliser) and incubated for 1 hour. Ten ml of Scintillation fluid was added and the radioactivity was measured.
The study was a non-randomised, parallel group biostudy designed to evaluate the systemic bioavailability of tritium labelled kappa peptide conjugates after intra-duodenal instillation in the conscious rat model. Each rat only received one treatment and the plasma samples were analysed for tritium content. The calculation of AUClast, Amax, tmax, Volume of Distribution (V d) and Clearance was based on base line corrected data. The absolute bioavailability was calculated using potency corrected data.

kappa receptor = target: T1, kappa receptor (Rattus norvegicus, UniProt P34975); assay: Competition for binding of a radiolabelled kappa peptide to rat brain homogenates; conditions: for opioid activity post conjugation: compared to unconjugated H-ffir-NH2 or to the ELAN207 conjugate
T1 construct: from tissue; host or cells: rat brain homogenate
Protocol: The integrity of the opioid peptide was evaluated post conjugation to assess suitability for inclusion in further studies. Opioid activity was assessed in vitro using a competition assay (competition for binding of a radiolabelled kappa peptide to rat brain homogenates).

[3] = IV, 10 μCi, listed as 3H Kappa peptide-Kaffiralin-1
[4] = intraduodenal (ID), 100 μCi, Elan207 = original group
[5] = IC50, Table 11, first IC50 column

CC[C@@H](C)[C@@H](NC(=O)[C@@H](Cc1ccccc1)NC(=O)[C@H](N)Cc1ccccc1)C(=O)N[C@H](CCCNC(=N)N)C(N)=O [3H-Kappa peptide-Kaffiralin-1]
Catheter, % of administered dose ([1]; ID, 100 μCi): 0.06 ± 0.05% | GI Tissue, % of administered dose ([1]; ID, 100 μCi): 7.72 ± 4.98% | GI Washing, % of administered dose ([1]; ID, 100 μCi): 15.85 ± 5.00% | GI contents, % of administered dose ([1]; ID, 100 μCi): 37.31 ± 15.75% | Liver, % of administered dose ([1]; ID, 100 μCi): 0.63 ± 0.37% | Total GI (% recovery from GI tissue, GI contents & GI wash) ([1]; ID, 100 μCi): 60.87 ± 16.74% | Kidney, % of administered dose ([1]; ID, 100 μCi): 0.16 ± 0.17% | Plasma, % of administered dose ([1]; ID, 100 μCi): 0.06 ± 0.01% | Total Recovery, % of administered dose ([1]; ID, 100 μCi): 61.79 ± 16.93% | Plasma, % of administered dose ([1]; ID, 100 μCi, listed as 3H-Kappa peptide Kaffiralin-1): 0.06±0.01% | GI Tissue, % of administered dose ([1]; IV, 10 μCi): 1.62 ± 0.41% | GI Washing, % of administered dose ([1]; IV, 10 μCi): 1.98 ± 1.01% | GI contents, % of administered dose ([1]; IV, 10 μCi): 23.50 ± 11.04% | Liver, % of administered dose ([1]; IV, 10 μCi): 6.66 ± 1.77% | Total GI (% recovery from GI tissue, GI contents & GI wash) ([1]; IV, 10 μCi): 27.10 ± 11.93% | Liver, % of administered dose [1, 3]: 6.66±1.77% | Kidney, % of administered dose ([1]; IV, 10 μCi): 0.51 ± 0.08% | Plasma, % of administered dose ([1]; IV, 10 μCi): 0.16 ± 0.03% | Total Recovery, % of administered dose ([1]; IV, 10 μCi): 34.43 ± 13.36% | Plasma, % of administered dose [1, 3]: 0.16±0.03% | Total Recovery, % of administered dose ([1]; IV, 10 μCi, listed as 3H Kappa-peptide-Kaffiralin-1): 34.43±13.36% | 3H AUClast [2, 4]: 73098.43±9493.88 dpm/ml·h | 3H Amax (maximum radioactivity) [2, 4]: 70925.33±23631.28 dpm/ml | 3H AUClast ([2]; intravenous (IV), 10 μCi): 132184.24±13288.32 dpm/ml·h | 3H Amax (maximum radioactivity) ([2]; intravenous (IV), 10 μCi): 903603.03±186855.31 dpm/ml | bioavailability ([2]; rat, plasma, intraduodenal (ID), 100 μCi, potency corrected, Elan207 = original group, read-out: Absolute 3H bioavailability): 7.94 ± 1.92% | clearance ([2]; rat, plasma, intravenous (IV), 10 μCi): 2.38 mL/min | Vd ([2]; rat, plasma, intravenous (IV), 10 μCi, read-out: Volume of Distribution): 0.964 ± 0.256 L

CC[C@@H](C)[C@@H](NC(=O)[C@@H](Cc1ccccc1)NC(=O)[C@H](N)Cc1ccccc1)C(=O)N[C@H](CCCNC(=N)N)C(=O)N[C@H](CCCCNC(=O)[C@H]1CCCN1C(=O)[C@@H](C)NC(=O)[C@@H](C)NC(=O)[C@@H](CC(C)C)NC(=O)[C@@H](CC(C)C)NC(=O)[C@H](NC(=O)[C@H]1CCCN1C(=O)[C@@H](CC(C)C)NC(=O)[C@@H](CC(C)C)NC(=O)[C@H](NC(=O)[C@@H](C)NC(=O)[C@@H](C)NC(=O)[C@@H](C)NC(=O)[C@@H](CCCCN)NC(=O)[C@H](N)CCCCN)C(C)C)C(C)C)C(N)=O [P10-110, H-ffirk(kkaaavllpvllaap-NH-e)-NH2]
opioid activity post conjugation (kappa receptor): significantly reduced

CC[C@@H](C)[C@@H](NC(=O)[C@@H](Cc1ccccc1)NC(=O)[C@H](N)Cc1ccccc1)C(=O)N[C@H](CCCNC(=N)N)C(=O)NCCCC[C@@H](NC(=O)[C@H]1CCCN1C(=O)[C@@H](C)NC(=O)[C@@H](C)NC(=O)[C@@H](CC(C)C)NC(=O)[C@@H](CC(C)C)NC(=O)[C@H](NC(=O)[C@H]1CCCN1C(=O)[C@@H](CC(C)C)NC(=O)[C@@H](CC(C)C)NC(=O)[C@H](NC(=O)[C@@H](C)NC(=O)[C@@H](C)NC(=O)[C@@H](C)NC(=O)[C@@H](CCCCN)NC(=O)[C@H](N)CCCCN)C(C)C)C(C)C)C(N)=O [P10-114, H-kkaaavllpvllaapk(ffir-NH-e)-NH2]
IC50 (kappa receptor; Day 5, second of duplicates, read-out: IC50): 1 nM | IC50 (kappa receptor; Day 82, first of triplicates, read-out: IC50): 0.8 nM | IC50 (kappa receptor; Day 82, second of triplicates, read-out: IC50): 0.8 nM | opioid activity post conjugation (kappa receptor): retained, or even enhanced

CC[C@@H](C)[C@@H](NC(=O)[C@@H](Cc1ccccc1)NC(=O)[C@H](N)Cc1ccccc1)C(=O)N[C@H](CCCNC(=N)N)C(=O)NCCCC[C@@H](NC(=O)[C@H]1CCCN1C(=O)[C@@H](C)NC(=O)[C@@H](C)NC(=O)[C@@H](CC(C)C)NC(=O)[C@@H](CC(C)C)NC(=O)[C@H](NC(=O)[C@H]1CCCN1C(=O)[C@@H](CC(C)C)NC(=O)[C@@H](CC(C)C)NC(=O)[C@H](NC(=O)[C@@H](C)NC(=O)[C@@H](C)NC(=O)[C@@H](C)NC(=O)[C@@H](CCCCN)NC(=O)[C@@H](CCCCN)NC(=O)[C@@H](N)CCCCNC(=O)CCCCCNC(=O)CCCC[C@@H]1SC[C@@H]2NC(=O)N[C@@H]21)C(C)C)C(C)C)C(N)=O [P34-154, H-K(biotin-LC)kkaaavllpvllaapk(ffir-NH-e)-NH2]
opioid activity post conjugation (kappa receptor): retained activity

CC[C@@H](C)[C@@H](NC(=O)[C@@H](Cc1ccccc1)NC(=O)[C@H](N)Cc1ccccc1)C(=O)N[C@H](CCCNC(=N)N)C(=O)NCCCC[C@H](NC(=O)[C@@H]1CCCN1C(=O)[C@H](C)NC(=O)[C@H](C)NC(=O)[C@H](CC(C)C)NC(=O)[C@H](CC(C)C)NC(=O)[C@@H](NC(=O)[C@@H]1CCCN1C(=O)[C@H](CC(C)C)NC(=O)[C@H](CC(C)C)NC(=O)[C@@H](NC(=O)[C@H](C)NC(=O)[C@H](C)NC(=O)[C@H](C)NC(=O)[C@H](CCCCN)NC(=O)[C@H](CCCCN)NC(=O)[C@@H](N)CCCCNC(=O)CCCCCNC(=O)CCCC[C@@H]1SC[C@@H]2NC(=O)N[C@@H]21)C(C)C)C(C)C)C(N)=O [P37-114]
IC50 (kappa receptor; [5]): 0.4 nM | opioid activity post conjugation (kappa receptor): activity equivalent to that observed with ELAN207

CC[C@@H](C)[C@@H](NC(=O)[C@@H](Cc1ccccc1)NC(=O)[C@H](N)Cc1ccccc1)C(=O)N[C@H](CCCNC(=N)N)C(=O)NCCCC[C@H](NC(=O)[C@@H](CCCCN)NC(=O)[C@@H](CCCCN)NC(=O)[C@@H](C)NC(=O)[C@@H](C)NC(=O)[C@@H](C)NC(=O)[C@H](NC(=O)[C@@H](CC(C)C)NC(=O)[C@@H](CC(C)C)NC(=O)[C@H]1CCCN1C(=O)[C@H](NC(=O)[C@@H](CC(C)C)NC(=O)[C@@H](CC(C)C)NC(=O)[C@@H](C)NC(=O)[C@@H](C)NC(=O)[C@H]1CCCN1C(=O)[C@@H](N)CCCCNC(=O)CCCCCNC(=O)CCCC[C@@H]1SC[C@@H]2NC(=O)N[C@@H]21)C(C)C)C(C)C)C(N)=O [P37-115, H-K(biotin-LC)paallvpllvaaakkK(ffir-NH-e)-NH2]
opioid activity post conjugation (kappa receptor): activity equivalent to that observed with ELAN207

CC[C@@H](C)[C@@H](NC(=O)[C@@H](Cc1ccccc1)NC(=O)[C@H](N)Cc1ccccc1)C(=O)N[C@H](CCCNC(=N)N)C(=O)NCCCC[C@H](NC(=O)[C@@H]1CSSC[C@H](NC(=O)[C@H](CCCCN)NC(=O)[C@H](CCCCN)NC(=O)[C@@H](N)CCCCNC(=O)CCCCCNC(=O)CCCC[C@@H]2SC[C@@H]3NC(=O)N[C@@H]32)C(=O)N[C@@H](C)C(=O)N[C@@H](C)C(=O)N[C@@H](C(C)C)C(=O)N[C@@H](CC(C)C)C(=O)N[C@@H](CC(C)C)C(=O)N2CCC[C@H]2C(=O)N[C@@H](C(C)C)C(=O)N[C@@H](CC(C)C)C(=O)N[C@@H](CC(C)C)C(=O)N[C@@H](C)C(=O)N1)C(N)=O [P37-116]
IC50 (kappa receptor; [5]): 0.2 nM | opioid activity post conjugation (kappa receptor): activity equivalent to that observed with ELAN207
